# Measurements published in patent US20240116910A1, “Heterocycles as WIP1 Inhibitors” (PMV Pharmaceuticals, Inc., priority 2022, published 2024).
# Molecular target: recombinant His-tag Wip1(2-420) protein (amino acids #2-420) (Homo sapiens (Human), UniProt O15297)
# Experiment: Wip1(2-420) phosphatase enzyme FDP assay
# Assay type: biochemical
# Settings: fluorescein diphosphate (FDP) substrate, RT 2 hours, fluorescence Ex485/Em535; read-out: WIP1 (Truncated 2-420) FDP Assay: IC50
# Method: The Human Wip1 (2-420, aa 2-420) or Wip1 full length (aa 1-605) DNA sequence was codon optimized and synthesized by Genscript for insect cell expression. The open reading frame of Wip1(2-420) with a N-terminal-His6 affinity tag followed by a TEV cleavage site was subcloned sites into the pFastBac1 expression vector. The recombinant bacmid DNA was transfected in Sf9 insect cells for baculovirus production. After 72 hours infection, the Sf9 cells were harvested by centrifugation and resuspended in lysis buffer containing 50 mM Tris/HCl, pH 8.0, 500 mM NaCl, 20% glycerol, Benzonase 0.5% CHAPS and Roche cOmplete™ EDTA free protease inhibitors. Cells were disrupted with microfluidizer and the debris was removed by centrifugation at 185,000 g for 1 hour. The supernatant was subjected to HisTrap FF for affinity purification. Proteins were eluted with a linear gradient of 0-500 mM imidazole in HisTrap buffer containing 50 mM Tris/HCl, pH 8.0, 500 mM NaCl and 20% glycerol, 0.05% CHAPS. The eluted protein was dialyzed against dialysis buffer (20 mM MES, 100 mM NaCl, 20% glycerol, 0.5 mM TCEP, 0.05% CHAPS) followed purification via HiTrap SP HP column. The protein was eluted with a gradient of 100 mM-2 M NaCl in dialysis buffer. His6-[…] was finally concentrated and loaded onto a size-exclusion column (NiLoad 16/600 Superdex 200 pg, GE Healthcare) pre-equilibrated with 50 mM MOPS (pH 7.5), 200 mM NaCl, 20% glycerol, 1 mM TCEP, 0.05% CHAPS and 0.1 mM EGTA. The peak fractions containing purified Nis6-Wip1(2-420) were pooled and concentrated to 1.0 mg/mL and flash frozen at −80° C.
# Wip1 Length and Wip1(2-420) Phosphatase Enzyme FDP Assays.
# Test compounds (252 mM stock in DMSO) were diluted 3 folds in series in DMSO and 1.2 μl per well were added into 384-well polypropylene black plates (Nunc). Twelve μl per well of Assay Buffer (100 mM NaCl, 50 mM MOPS, pH 7.5, 0.8 mM CHAPS, 0.1 mM EGTA, 30 mM MgCl2, 0.3 mM TCEP, 0.2 mg/mL BSA) was added followed by […] per well of 50.4 nM recombinant His-tag Wip1 full length protein (amino acids #1-605) or recombinant His-tag Wip1(2-420) protein (amino acids #2-420) in Assay Buffer and the plate was incubated at RT (22° C.) for 5 min. Ten mM of fluorescein diphosphate (FDP) in DMSO was diluted to […] in Assay Buffer and […] per well was added to the plate and incubated at RT (22° C.) for 2 hours. […] per well of 64.1 mM EDTA in water were added to stop the enzyme reaction. The plate was centrifuged at 1,200 rpm (Eppendorf 5810R Plate centrifuge) for 1 minute and fluorescence intensity (Ex485/Em535) was measured on Perkin Elmer Victor Reader. EC50 values were calculated using either Prism (GraphPad) or ActivityBase software (IDBS), The IC50 results are provided in Table M.
# Chain of recombinant His-tag Wip1(2-420) protein (amino acids #2-420) (O15297 2-420): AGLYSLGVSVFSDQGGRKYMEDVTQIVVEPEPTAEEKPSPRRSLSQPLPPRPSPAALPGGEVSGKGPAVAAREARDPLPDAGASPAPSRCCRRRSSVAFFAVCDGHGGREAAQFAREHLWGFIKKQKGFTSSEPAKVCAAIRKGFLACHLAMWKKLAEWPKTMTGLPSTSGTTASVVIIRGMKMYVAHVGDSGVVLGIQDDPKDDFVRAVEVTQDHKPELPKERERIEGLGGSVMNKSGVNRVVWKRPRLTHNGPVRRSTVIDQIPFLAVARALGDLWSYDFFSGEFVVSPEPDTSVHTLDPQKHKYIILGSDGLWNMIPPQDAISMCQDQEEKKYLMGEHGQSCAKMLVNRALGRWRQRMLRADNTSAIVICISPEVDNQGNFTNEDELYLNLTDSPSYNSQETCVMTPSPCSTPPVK
row,IC50 [nM],SMILES
1,3910,"Cc1cc(NC(=O)[C@H](CC2CCCC2)NC(=O)c2cnc([C@H](C)Nc3cccc(Cl)c3)s2)cc(C)n1 [Compound 128, (2S)-2-({2-[(1S)-1-[(3-chlorophenyl)amino]ethyl]-1,3-thiazol-5-yl}formamido)-3-cyclopentyl-N-(2,6-dimethylpyridin-4-yl)propanamide]"
2,7,"COCCN1CCCc2cc(NC(=O)[C@H](CC3CCCC3)NC(=O)c3ccc([C@H](C)Nc4cc(Cl)cnc4C)s3)ccc21 [Compound 129, (2S)-2-({5-[(1S)-1-[(5-chloro-2-methylpyridin-3-yl)amino]ethyl]thiophen-2-yl}formamido)-3-cyclopentyl-N-[1-(2-methoxyethyl)-1,2,3,4-tetrahydroquinolin-6-yl]propanamide]"
3,22,"Cc1ncc(Cl)cc1NC(Cc1ccncc1)c1ccc(C(=O)N[C@@H](CC2CCCC2)C(=O)NC2CC2)s1 (stereo partly drawn) [Compound 130, (2S)-2-[(5-{1-[(5-chloro-2-methylpyridin-3-yl)amino]-2-(pyridin-4-yl)ethyl}thiophen-2-yl)formamido]-3-cyclopentyl-N-cyclopropylpropanamide]"
4,80,"Cc1ncc(Cl)cc1NC(CC1CCN(C)CC1)c1ccc(C(=O)N[C@@H](CC2CCCC2)C(=O)NC2CC2)s1 (stereo partly drawn) [Compound 131, (2S)-2-[(5-{1-[(5-chloro-2-methylpyridin-3-yl)amino]-2-(1-methylpiperidin-4-yl)ethyl}thiophen-2-yl)formamido]-3-cyclopentyl-N-cyclopropylpropanamide]"
5,76,"C[C@@H](Nc1cc(Cl)cnc1C(N)=O)c1ccc(C(=O)N[C@@H](CC2CCCC2)C(=O)NC23CC(C2)C3)s1 [Compound 132, 3-{[(1R)-1-(5-{[(1S)-1-({bicyclo[1.1.1]pentan-1-yl}carbamoyl)-2-cyclopentylethyl]carbamoyl}thiophen-2-yl)ethyl]amino}-5-chloropyridine-2-carboxamide]"
6,4,"C[C@H](Nc1cc(Cl)cnc1C(N)=O)c1ccc(C(=O)N[C@@H](CC2CCCC2)C(=O)NC23CC(C2)C3)s1 [Compound 133, 3-{[(1S)-1-(5-{[(1S)-1-({bicyclo[1.1.1]pentan-1-yl}carbamoyl)-2-cyclopentylethyl]carbamoyl}thiophen-2-yl)ethyl]amino}-5-chloropyridine-2-carboxamide]"
7,4,"Cc1ncc(Cl)cc1N[C@@H](C)c1ccc(C(=O)NC(CC2CCCC2)C(=O)Nc2c[nH]nn2)s1 (stereo partly drawn) [Compound 134, 2-({5-[(1S)-1-[(5-chloro-2-methylpyridin-3-yl)amino]ethyl]thiophen-2-yl}formamido)-3-cyclopentyl-N-(1H-1,2,3-triazol-4-yl)propanamide]"
8,5,"Cc1ncc(Cl)cc1N[C@@H](C)c1ccc(C(=O)N[C@@H](CC2CCCC2)C(=O)Nc2ccnc(C(N)=O)c2)s1 [Compound 135, 4-[(2S)-2-({5-[(1S)-1-[(5-chloro-2-methylpyridin-3-yl)amino]ethyl]thiophen-2-yl}formamido)-3-cyclopentylpropanamido]pyridine-2-carboxamide]"
9,5,"C[C@H](Nc1cc(Cl)cnc1C(N)=O)c1ccc(C(=O)N[C@@H](CC2CCCC2)C(=O)Nc2cnn(C)c2)s1 [Compound 136, 5-chloro-3-{[(1S)-1-(5-{[(1S)-2-cyclopentyl-1-[(1-methyl-1H-pyrazol-4-yl)carbamoyl]ethyl]carbamoyl}thiophen-2-yl)ethyl]amino}pyridine-2-carboxamide]"
10,54,"C[C@@H](Nc1cc(Cl)cnc1C(N)=O)c1ccc(C(=O)N[C@@H](CC2CCCC2)C(=O)Nc2cnn(C)c2)s1 [Compound 137, 5-chloro-3-{[(1R)-1-(5-{[(1S)-2-cyclopentyl-1-[(1-methyl-1H-pyrazol-4-yl)carbamoyl]ethyl]carbamoyl}thiophen-2-yl)ethyl]amino}pyridine-2-carboxamide]"
11,19,"Cc1ncc(Cl)cc1N[C@@H](C)c1ccc(C(=O)N[C@@H](CC2CCCC2)C(N)=O)s1 [Compound 138, (2S)-2-({5-[(1S)-1-[(5-chloro-2-methylpyridin-3-yl)amino]ethyl]thiophen-2-yl}formamido)-3-cyclopentylpropanamide]"
12,5,"Cc1ncc(Cl)cc1N[C@@H](C)c1ccc(C(=O)N[C@@H](CC2CCCC2)C(=O)Nc2ccnc(O)c2)s1 [Compound 139, (2S)-2-({5-[(1S)-1-[(5-chloro-2-methylpyridin-3-yl)amino]ethyl]thiophen-2-yl}formamido)-3-cyclopentyl-N-(2-hydroxypyridin-4-yl)propanamide]"
13,402,"Cc1ncc(Cl)cc1N[C@@H](C)c1ccc(C(=O)N[C@H](CC2CCCC2)C(=O)Nc2ccnc(O)c2)s1 [Compound 140, (2R)-2-({5-[(1S)-1-[(5-chloro-2-methylpyridin-3-yl)amino]ethyl]thiophen-2-yl}formamido)-3-cyclopentyl-N-(2-hydroxypyridin-4-yl)propanamide]"
14,5,"Cc1ncc(Cl)cc1N[C@@H](C)c1ccc(C(=O)N[C@@H](CC2CCCC2)C(=O)Nc2cnn(CCF)c2)s1 [Compound 141, (2S)-2-({5-[(1S)-1-[(5-chloro-2-methylpyridin-3-yl)amino]ethyl]thiophen-2-yl}formamido)-3-cyclopentyl-N-[1-(2-fluoroethyl)-1H-pyrazol-4-yl]propanamide]"
15,2500,"Cc1ncc(Cl)cc1N[C@@H](C)c1ccc(C(=O)N[C@H](CC2CCCC2)C(=O)Nc2ccnc(Cl)c2)s1 [Compound 142, (2R)-2-({5-[(1S)-1-[(5-chloro-2-methylpyridin-3-yl)amino]ethyl]thiophen-2-yl}formamido)-N-(2-chloropyridin-4-yl)-3-cyclopentylpropanamide]"
16,5,"Cc1ncc(Cl)cc1N[C@@H](C)c1ccc(C(=O)N[C@@H](CC2CCCC2)C(=O)Nc2ccnc(Cl)c2)s1 [Compound 143, (2S)-2-({5-[(1S)-1-[(5-chloro-2-methylpyridin-3-yl)amino]ethyl]thiophen-2-yl}formamido)-N-(2-chloropyridin-4-yl)-3-cyclopentylpropanamide]"
17,6,"Cc1ncc(Cl)cc1N[C@@H](C)c1ccc(C(=O)N[C@@H](CC2CCCC2)C(=O)Nc2cnn(C3COC3)c2)s1 [Compound 144, (2S)-2-({5-[(1S)-1-[(5-chloro-2-methylpyridin-3-yl)amino]ethyl]thiophen-2-yl}formamido)-3-cyclopentyl-N-[1-(oxetan-3-yl)-1H-pyrazol-4-yl]propanamide]"
18,1420,"Cc1cc(NC(=O)[C@@H](CCC(C)(C)C)NC(=O)c2ccc([C@H](C)Nc3cc(Cl)cnc3C)s2)ccn1 [Compound 145, (2R)-2-({5-[(1S)-1-[(5-chloro-2-methylpyridin-3-yl)amino]ethyl]thiophen-2-yl}formamido)-5,5-dimethyl-N-(2-methylpyridin-4-yl)hexanamide]"
19,15,"CC(Nc1cc(Cl)cnc1C(N)=O)c1ccc(C(=O)N[C@@H](CC2CC3CC3C2)C(=O)Nc2cnn(C)c2)s1 (stereo partly drawn) [Compound 146, 3-{[1-(5-{[(1S)-2-{bicyclo[3.1.0]hexan-3-yl}-1-[(1-methyl-1H-pyrazol-4-yl)carbamoyl]ethyl]carbamoyl}thiophen-2-yl)ethyl]amino}-5-chloropyridine-2-carboxamide]"
20,6,"Cc1ncc(Cl)cc1N[C@@H](C)c1ccc(C(=O)N[C@@H](CC2CCCC2)C(=O)Nc2cnn(CC(F)(F)F)c2)s1 [Compound 147, (2S)-2-({5-[(1S)-1-[(5-chloro-2-methylpyridin-3-yl)amino]ethyl]thiophen-2-yl}formamido)-3-cyclopentyl-N-[1-(2,2,2-trifluoroethyl)-1H-pyrazol-4-yl]propanamide]"
21,6,"Cc1ncc(Cl)cc1N[C@@H](C)c1ccc(C(=O)N[C@@H](CC2CCCC2)C(=O)Nc2ccc3ncc(C#N)cc3c2)s1 [Compound 148, (2S)-2-({5-[(1S)-1-[(5-chloro-2-methylpyridin-3-yl)amino]ethyl]thiophen-2-yl}formamido)-N-(3-cyanoquinolin-6-yl)-3-cyclopentylpropanamide]"
